Source: patent publication US11485742B2, “2-azaspiro[3.4]octane derivatives as M4 agonists” (NOVARTIS AG, priority 2019, dated 2022)
pEC50: −log10 of the molar value.

Legend:
[1] = molecular target: T1, human cloned CHRM2 receptor (Homo sapiens, UniProt P08172); experiment: CHRM2 Ca++ Flux Assay (M2_CHO cells, agonist mode); format: cell-based; conditions: M2 CHO cells; for pEC50: agonist mode, geometric mean if tested more than once, read-out: M2 FDSS EC50; for M2 FDSS PA % / Emax: Percent Activity (PA) measured to EC100 of Carbachol; for Emax: read-out: M2 FDSS PA %
T1 construct: expressed in transfected cells; host or cells: CHO-K1 (M2_CHO)
T1 sequence (P08172 1-466): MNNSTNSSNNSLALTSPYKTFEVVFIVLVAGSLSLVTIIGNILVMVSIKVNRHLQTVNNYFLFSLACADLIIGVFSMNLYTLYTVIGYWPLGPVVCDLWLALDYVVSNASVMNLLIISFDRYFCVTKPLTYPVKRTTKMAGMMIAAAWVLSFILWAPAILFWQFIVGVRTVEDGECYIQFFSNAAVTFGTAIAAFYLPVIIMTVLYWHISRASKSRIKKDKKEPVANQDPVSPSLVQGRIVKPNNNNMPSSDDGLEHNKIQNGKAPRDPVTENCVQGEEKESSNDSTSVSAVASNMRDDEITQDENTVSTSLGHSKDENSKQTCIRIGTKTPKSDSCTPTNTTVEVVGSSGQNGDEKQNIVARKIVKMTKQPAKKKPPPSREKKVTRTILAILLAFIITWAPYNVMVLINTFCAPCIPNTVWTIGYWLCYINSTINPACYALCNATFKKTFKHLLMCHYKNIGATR
Description: (§1) The above examples were characterized by measuring the intracellular mobilization of Ca^++ ions caused by signaling events mediated by the receptor. The Intra-cellular Calcium flux levels were captured by the highly sensitive Ca^++ indicator, Calcium Assay Kit (BD Biosciences; Catalog Number 640178. The fluorescent activity from all receptors were monitored by the fluorescent imager, FDSS 7000EX (Hamamatsu) over a span of 3 minutes. The change in Calcium flux was readily captured upon activation with the muscarinic orthosteric agonist, Carbachol.
CHO-K1 cells stably expressing the human cloned CHRM2 receptor (M2_CHO cells) were grown and maintained in a monolayer culture with F12/HAM (Life Technologies) supplemented with 10% Fetal Bovine Serum, 1×Pen-Strep, and 0.4 mg/mL Geneticin in a humidified atmosphere (5% CO2) at 37° C. The cultures were grown to 80-90% confluency in T150 flasks (Corning) and washed with 1×DPBS and lifted with 0.05% Trypsin (Life Technologies). The cells were then spun (1K rpm, 3 minutes) and frozen using Recovery Cell Culture Freezing Media (Gibco Technologies). Cells were stored in liquid nitrogen and thawed a day before the assay.
Prior to the day of the assay, stable M2 CHO cells were thawed and plated on Greiner 384 well TC treated plate at a density of 12K cells/well and kept overnight in a humidified atmosphere (5% CO2) at 37° C. The following day, the cells were loaded with Ca^++ dye (BD Biosciences) using Loading Buffer (HBSS +Ca/+Mg, 20 mM HEPES, 2.5 mM Probenecid) and placed back in cell incubator for a minimum of 1 hour and maximum of 2 hours. After incubation, the dye was replaced with Assay Buffer (HBSS −Ca/−Mg, 20 mM HEPES, 2.5 mM Probenecid) supplemented with 20 μM ATP (Sigma Aldrich) and kept at room temperature for 60 minutes prior before running on cell imager. The FDSS 7000EX (Hamamatsu) was used to acquire Ca^++ traces from cells in response to compound treatment and the data was used to generate dose response curves in agonist mode. All compounds were serially diluted in DMSO then prepared in Assay Buffer for Ca^−+ flux studies. The dose response curves were generated from the average of triplicate wells obtained from each data point and used a non-linear regression of four parameter dose response algorithm. The Percent Activity (PA) was measured to EC100 of Carbachol.
(§2) If an Example was tested more than once in an assay, then the values below represent the geometric mean of the results from each independent experiment.

[2] = molecular target: T2, human cloned CHRM4 receptor (Homo sapiens, UniProt P08173); experiment: CHRM4 Ca++ Flux Assay (M4_CHO cells, agonist mode); format: cell-based; conditions: for M4 FDSS PA % / Emax: Percent Activity (PA); for pEC50: geometric mean if tested more than once, read-out: M4 FDSS EC50; for Emax: read-out: M4 FDSS PA %
T2 construct: expressed in transfected cells; host or cells: CHO-K1 (M4_CHO)
T2 sequence (P08173 1-479): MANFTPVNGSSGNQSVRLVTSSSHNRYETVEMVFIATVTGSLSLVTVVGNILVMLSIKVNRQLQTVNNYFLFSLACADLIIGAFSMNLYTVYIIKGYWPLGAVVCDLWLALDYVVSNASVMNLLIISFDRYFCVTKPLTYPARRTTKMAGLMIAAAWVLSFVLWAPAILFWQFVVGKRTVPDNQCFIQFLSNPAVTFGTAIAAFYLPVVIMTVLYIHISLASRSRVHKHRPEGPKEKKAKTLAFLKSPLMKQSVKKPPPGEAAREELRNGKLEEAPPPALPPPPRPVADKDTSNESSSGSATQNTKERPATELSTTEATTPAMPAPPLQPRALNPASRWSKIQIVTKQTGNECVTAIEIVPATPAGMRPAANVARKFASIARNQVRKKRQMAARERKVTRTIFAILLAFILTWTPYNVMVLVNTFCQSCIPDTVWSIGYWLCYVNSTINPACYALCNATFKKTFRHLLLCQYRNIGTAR
Description: as §1
CHO-K1 cells stably expressing the human cloned CHRM4 receptor (M4_CHO cells) were grown and maintained in a monolayer culture with F12/HAM (Life Technologies) supplemented with 10% Fetal Bovine Serum, 1X Pen-Strep, and 0.4 mg/mL Geneticin in a humidified atmosphere (5% CO2) at 37° C. The cultures were grown to 80-90% confluency in T150 flasks (Corning) and washed with 1×DPBS then lifted with 0.05% Trypsin (Life Technologies). The cells were harvested in growth media then spun (1K rpm, 3 minutes) and cryopreserved using Recovery Cell Culture Freezing Media (Gibco Technologies). Cells were stored in liquid nitrogen and thawed a day before the assay.
Prior to the day of the assay, stable M4_CHO cells were thawed and plated on 384 well black walled clear bottom TC treated plates (Greiner Cat #781091) at 12K cells/well using F12/HAM Media supplemented with 10% FBS (Life Technologies) and kept overnight in a humidified atmosphere (5% CO2) at 37° C. The next day, cells were loaded with 20 μL Ca^++ dye (BD Biosciences) using Loading Buffer (HBSS +Ca/+Mg, 20 mM HEPES, 2.5 mM Probenecid) and placed back in cell incubator for a minimum of 1 hour. After incubation, the dye was replaced with 45 μL Assay Buffer (HBSS −Ca/−Mg, 20 mM HEPES, 2.5 mM Probenecid) supplemented with 20 μM ATP (Sigma Aldrich) and kept at room temperature in the dark for 60 minutes before running on a cell imager. The FDSS 7000EX (Hamamatsu) was used to capture Ca^++ traces for a span of 3 minutes from cells treated with 11 point dose of compound in triplicate in order to generate dose response curves in agonist mode. All compounds were serially diluted in DMSO then prepared in Assay Buffer for Ca^++ flux studies. The dose response curves were generated from the average of triplicate wells obtained from each data point and used a non-linear regression of four parameter dose response algorithm. The Percent Activity (PA) was measured to EC100 of Carbachol.
as §2

Compound | pEC50 [1] | M2 FDSS PA % [1] [%] | M4 FDSS PA % [2] [%] | pEC50 [2] | Emax [1] [%] | Emax [2] [%]
O[C@H]1CC[C@@H](c2ccc(F)cc2C2CCN([C@@H]3COC4(C3)CN(c3nnco3)C4)CC2)CC1 (single isomer, unassigned) [Example 3I, (1R,4s)-4-(2-(1-((S)-2-(1,3,4-oxadiazol-2-yl)-5-oxa-2-azaspiro[3.4]octan-7-yl)piperidin-4-yl)-4-fluorophenyl)cyclohexan-1-ol or (1S,4r)-4-(2-(1-((S)-2-(1,3,4-oxadiazol-2-yl)-5-oxa-2-azaspiro[3.4]octan-7-yl)piperidin-4-yl)-4-fluorophenyl)cyclohexan-1-ol] | 5.41 | 32 | 91.2 | 7.42 |  | 
CC(C)(O)[C@H]1C[C@@H](Oc2ccc(F)cc2C2CCN([C@@H]3COC4(C3)CN(c3ncco3)C4)CC2)C1 (single isomer, unassigned) [Example 4T, 2-((1R,3s)-3-(4-fluoro-2-(1-((S)-2-(oxazol-2-yl)-5-oxa-2-azaspiro[3.4]octan-7-yl)piperidin-4-yl)phenoxy)cyclobutyl)propan-2-ol or 2-((1S,3r)-3-(4-fluoro-2-(1-((S)-2-(oxazol-2-yl)-5-oxa-2-azaspiro[3.4]octan-7-yl)piperidin-4-yl)phenoxy)cyclobutyl)propan-2-ol] | 4.75 | 43 | 63 | 7.60 |  | 
CC(C)(O)[C@H]1C[C@@H](Oc2ccc(F)cc2C2CCN([C@@H]3COC4(C3)CN(c3ncco3)C4)CC2)C1 (single isomer, unassigned) [Example 4U, 2-((1R,3s)-3-(4-fluoro-2-(1-((S)-2-(oxazol-2-yl)-5-oxa-2-azaspiro[3.4]octan-7-yl)piperidin-4-yl)phenoxy)cyclobutyl)propan-2-ol or 2-((1S,3r)-3-(4-fluoro-2-(1-((S)-2-(oxazol-2-yl)-5-oxa-2-azaspiro[3.4]octan-7-yl)piperidin-4-yl)phenoxy)cyclobutyl)propan-2-ol] | 4.82 | 38 | 62 | 7.38 |  | 
Fc1ccc(OC[C@@H]2CCOC2)c(C2CCN([C@@H]3COC4(C3)CN(c3nnco3)C4)CC2)c1 [Example 1B, (S)-7-(4-(5-fluoro-2-(((R)-tetrahydrofuran-3-yl)methoxy)phenyl)piperidin-1-yl)-2-(1,3,4-oxadiazol-2-yl)-5-oxa-2-azaspiro[3.4]octane] | 6.31 |  |  | 8.00 | 39 | 84
Fc1ccc(OC[C@H]2COCCO2)c(C2CCN([C@@H]3COC4(C3)CN(c3nnco3)C4)CC2)c1 [Example 1C] | 6.30 |  |  | 7.44 | 29 | 78
Fc1ccc(O[C@@H]2CCOC2)c(C2CCN([C@@H]3COC4(C3)CN(c3nnco3)C4)CC2)c1 [Example 1D, (S)-7-(4-(5-fluoro-2-(((R)-tetrahydrofuran-3-yl)oxy)phenyl)piperidin-1-yl)-2-(1,3,4-oxadiazol-2-yl)-5-oxa-2-azaspiro[3.4]octane] | 6.22 |  |  | 7.68 | 50 | 80
CC(C)(C#N)COc1ccc(F)cc1C1CCN([C@@H]2COC3(C2)CN(c2nnco2)C3)CC1 [Example 1E, (S)-3-(2-(1-(2-(1,3,4-oxadiazol-2-yl)-5-oxa-2-azaspiro[3.4]octan-7-yl)piperidin-4-yl)-4-fluorophenoxy)-2,2-dimethylpropanenitrile] | 6.25 |  |  | 7.57 | 32 | 78
Fc1ccc(OC[C@@H]2COCCO2)c(C2CCN([C@@H]3COC4(C3)CN(c3nnco3)C4)CC2)c1 [Example 1F, (S)-7-(4-(2-(((S)-1,4-dioxan-2-yl)methoxy)-5-fluorophenyl)piperidin-1-yl)-2-(1,3,4-oxadiazol-2-yl)-5-oxa-2-azaspiro[3.4]octane] | 6.41 |  |  | 7.52 | 31 | 78
Fc1ccc(OC2CCOCC2)c(C2CCN([C@@H]3COC4(C3)CN(c3nnco3)C4)CC2)c1 [Example 1G, (S)-7-(4-(5-fluoro-2-((tetrahydro-2H-pyran-4-yl)oxy)phenyl)piperidin-1-yl)-2-(1,3,4-oxadiazol-2-yl)-5-oxa-2-azaspiro[3.4]octane] | 5.90 |  |  | 7.51 | 35 | 84
Fc1ccc(O[C@H]2CCOC2)c(C2CCN([C@@H]3COC4(C3)CN(c3nnco3)C4)CC2)c1 [Example 1H, (S)-7-(4-(5-fluoro-2-(((S)-tetrahydrofuran-3-yl)oxy)phenyl)piperidin-1-yl)-2-(1,3,4-oxadiazol-2-yl)-5-oxa-2-azaspiro[3.4]octane] | 6.10 |  |  | 7.47 | 30 | 77
Fc1cc(F)c(OC2CC3(COC3)C2)c(C2CCN([C@@H]3COC4(C3)CN(c3nnco3)C4)CC2)c1 [Example 2AA, (S)-7-(4-(2-((2-oxaspiro[3.3]heptan-6-yl)oxy)-3,5-difluorophenyl)piperidin-1-yl)-2-(1,3,4-oxadiazol-2-yl)-5-oxa-2-azaspiro[3.4]octane] | 5.10 |  |  | 6.68 | 22 | 16
